Measured values reported in EP1101499A2, “Diagnostic agents for pancreatic exocrine function” (Tokyo Gas Company Limited, priority 1999, dated 2001).
“And” between values parts separate entries of the source, which are not always exact repeats. Equal entries are not always repeated.

How the values were obtained:
[1] = test system: pancreatic exocrine function; assay: 13C-breath test after oral administration to chronic pancreatitis (oleic acid model) and control/normal rats; format: in vivo, rat; conditions: for Δ^13C value at 10 minutes after the administration / Δ^13C value at 20 minutes after the administration: group value n=4, 250 mg/kg orally; for Δ^13C value at 30 minutes after the administration: group value n=4, 30 mg/kg orally; for Δ^13C (mean) value at 15 minutes after the administration: mean n=2, 420 mg/kg orally
Experimental: […] The rat of 9 weeks old was fixed without anesthesia in a rat holder for a microwave irradiation apparatus. The breath was collected at a rate of about 100 to 300 ml/min using a stroke pump (Variable Stroke Pump VS-500, Shibata Kagaku Kogyo) and introduced directly to a flow cell of a ^13CO2 analyzer EX-130S (Nihon Bunko). A Perma Pure drier (MD-050-12P, Perma Pure INC.) was set between the rat holder and stroke pump to remove out water vapor in the breath. CO2 concentration was stabilized, the rat was once removed out of the rat holder and Bz-DL-Phe-(^13C-Leu).Na dissolved in distilled water was administered into the stomach using an oral sonde.
Output data from the ^13CO2 analyzer were AD converted and put into a personal computer (Apple Power Macintosh 8500). Using a data processing soft ware Lab VIEW (National Instruments), 10 data points at every 100 msec were integrated and averaged in an interval of 5 seconds and converted to ^13C atom %, Δ^13C (‰), and CO2 concentration (%). In this manner, the ^13C breath test was continuously carried out. […] CO2 concentration in the collected breath was held at 3 ± 0.5%.
Δ^13C (%o) was calculated from the ^13C concentration in the exhaled CO2 at each time point (^13C tmin) and the ^13C concentration in standard CO2 (^13C std) according to the following equation: Δ^13 (C (‰) - [()^13 (C tmin -)^13 (C 0min)/)^13 C std] x 1000 [formula]

[2] = test system: pancreatic exocrine function; assay: PFD test: oral BT-PABA, PABA excretion rate in urine; format: in vivo, rat; conditions: specificity 100%
Experimental: The rats of the model of chronic pancreatitis and control rats, which were kept for 3 to 4 weeks after the operation, were made to fast from 9:00 AM. At 4:00 PM, 3 mg/ml of BT-PABA (PFD solution for internal use, Eisai) was orally administered in an amount of 15 mg/kg. Urine was collected for 16 hours until 9:00 AM of the next day. The amount of the collected urine and the PABA concentration in the urine were determined using a PABA measuring kit to determine the excretion rate in urine (PFD test).

chymotrypsin = assay: Degradation by chymotrypsin, released leucine determined by ninhydrin reaction; format: biochemical, bovine; conditions: 23 mM substrate, 0.16 mg/ml chymotrypsin, 20 mM HEPPS-Na pH 8.0, 37°C, 15 minutes
Experimental: Bz-DL-Phe-(^13C-Leu) was reacted with chymotrypsin and the degradation product, leucine, generated upon action of chymotrypsin was quantitatively determined by ninhydrin reaction. The reaction was carried out in 20 mM HEPPS-Na (pH 8.0), 23 mM Bz-DL-Phe- (^13C-Leu), 0.16 mg/ml chymotrypsin (from bovine pancreas, Worthington Biochemical Corporation, #1432, Lot 37A906) at 37°C for 15 minutes. After reaction, 50 µl of citrate buffer (citric acid monohydrate), 20 µl of ninhydrin solution (50 mg/ml solution in methyl cellosolve) and 100 µl of KCN solution (0.01 M aqueous KCN solution diluted 50 times with methyl cellosolve) were added to 100 µl of the reaction mixture and heated at 100°C for 15 minutes. After cooling the ninhydrin reaction mixture to room temperature, 150 µl of 60% (V/V) ethanol was added to 100 µl of the ninhydrin reaction mixture and stirred followed by determination of an absorbance at a wave length of 570 nm. An experiment wherein all the reactions that were carried out without adding Bz-DL-Phe-(^13C-Leu) was taken as a "blank," and leucine was used as a standard.

[3] = individual chronic pancreatitis rats #1-#4, sodium salt 250 mg/kg orally
[4] = individual normal rats #1-#4, sodium salt 250 mg/kg orally

Bz-L-Phe-(^13C-Leu)
Δ^13C (%o) at 10 min [1, 3]: 1.61 %o and 3.28 %o and 17.21 %o and 5.77 %o | Δ^13C (%o) at 10 min [1, 4]: 31.29 %o and 60.25 %o and 165.37 %o and 203.16 %o

O=C(O)c1ccc(NC(=O)[C@H](Cc2ccc(O)cc2)NC(=O)c2ccccc2)cc1 [PFD, N-benzoyl-L-tyrosyl-p-aminobenzoic acid]
sensitivity in the PFD test ([2]; 15 mg/kg orally, same group of rats as the Bz-DL-Phe-(^13C-Leu) breath test (n=8 / n=4)): 50% | sensitivity in the PFD test ([2]; same group of rats as the Bz-Ala-(^13C-Ala) breath test (n=8 / n=7)): 63% | sensitivity in the PFD test ([2]; same group of rats as the Bz-Gly-(^13C-Leu) breath test (n=10 / n=10)): 50%

Bz-L-Phe-(^13C-Leu).Na
Δ^13C value at 10 minutes after the administration ([1]; chronic pancreatitis rats): 6.97 ± 6.09 %o | Δ^13C value at 10 minutes after the administration ([1]; normal rats): 115.02 ± 71.26 %o

Arg-(^13C-Leu)
Δ^13C value at 30 minutes after the administration ([1]; chronic pancreatitis rats): 4.37 ± 1.83 %o | Δ^13C (%o) at 30 min ([1]; individual chronic pancreatitis rats #1-#4, 30 mg/kg orally): 3.74 %o and 6.97 %o and 4.87 %o and 1.92 %o | Δ^13C (%o) at 30 min ([1]; individual normal rats #1-#4, 30 mg/kg orally): 10.30 %o and 13.74 %o and 15.37 %o and 10.08 %o | Δ^13C value at 30 minutes after the administration ([1]; normal rats): 12.37 ± 2.26 %o

Bz-DL-Phe-(^13C-Leu)
rate of degradation (chymotrypsin): 1.72 nmole/mg chymotrypsin/min

Bz-Tyr-(^13C-Leu).Na
Δ^13C value at 20 minutes after the administration ([1]; chronic pancreatitis rats): 3.66 ± 3.24 %o | Δ^13C value at 20 minutes after the administration ([1]; normal rats): 69.53 ± 32.50 %o

Bz-Gly-(^13C-Leu)-Na
sensitivity ([1]; 50 mg/kg orally, Δ^13C at 18 minutes as check value, specificity 100%, chronic pancreatitis n=10, normal n=10): 80%

Bz-DL-Phe-(^13C-Leu).Na
sensitivity ([1]; 250 mg/kg orally, Δ^13C at 10 minutes as check value, cut off set for specificity 100%, chronic pancreatitis n=8, control n=4): 100% | Δ^13C (‰) values at 10 minutes after the administration ([1]; chronic pancreatitis rats (n=8) compared with control rats (n=4), 250 mg/kg orally): smaller than the smallest value of Δ ^13C (‰) for the control rats

Bz-Ala-Ala-Ala-Ala-(^13C-Gly)-Phe-Leu.Na
Δ^13C (mean) value at 15 minutes after the administration ([1]; chronic pancreatitis rats): 0.61 %o | Δ^13C (mean) value at 15 minutes after the administration ([1]; normal rats): 33.32 %o

Bz-Ala-Ala-Ala-Ala-(^13C-Gly)-Phe-Leu
Δ^13C (%o) at 15 min ([1]; individual chronic pancreatitis rats #1-#2, sodium salt 420 mg/kg orally): -1.90 %o and 3.12 %o | Δ^13C (%o) at 15 min ([1]; individual normal rats #1-#2, sodium salt 420 mg/kg orally): 23.47 %o and 43.16 %o

Bz-Tyr-(^13C-Leu)
Δ^13C (%o) at 20 min [1, 3]: 8.76 %o and 3.58 %o and 2.44 %o and -0.15 %o | Δ^13C (%o) at 20 min [1, 4]: 111.32 %o and 65.76 %o and 21.02 %o and 80.02 %o
